Measured values from patent US20230021647A1, “METHOD OF TREATING A PATIENT INFECTED WITH A CORONAVIRUS AND HAVING A BASELINE LEVEL OF CRP BELOW 150 MG/L” (Theravance Biopharma R&D IP, LLC, priority 2021, published 2023).
Marks after values point to notes of the source that are not given here.

Tested on: acute lung injury associated with COVID-19
Assay: Phase 2 study Part 1, multiple ascending dose in hospitalized COVID-19 patients
Type: in vivo, human
Conditions: for subjects discharged from the hospital: by Day 21 (placebo 50%); for # Subjects Alive: Part 1, COVID-19 patients
[1] = Part 1, 1 mg QD inhaled, Day 28
[2] = Part 1, 3 mg QD inhaled, Day 28
[3] = Part 1, 10 mg QD inhaled, Day 28

CCc1cc(O)ccc1-c1ccc2c(-c3nc4c([nH]3)CN(C(C)C)[C@H](C(=O)N3CC(N(C)C)C3)C4)n[nH]c2c1 [Compound 1, (S)-(3-(dimethylamino)azetidin-1-yl)(2-(6-(2-ethyl-4-hydroxyphenyl)-1H-indazol-3-yl)-5-isopropyl-4,5,6,7-tetrahydro-3H-imidazo[4,5-c]pyridin-6-yl)methanone]
5 (83.3%) subjects (%): # Subjects Respiratory Failure-Free [1] | Proportion of Subjects Alive and Respiratory Failure-free [1] | Clinical Status 1-Not hospitalized, no limitations on activities (Part 1, 1 mg, Day 28) | Hospital Discharge (Part 1, 1 mg, Day 28) | Clinical Status 1-Not hospitalized, no limitations on activities (Part 1, 3 mg, Day 28) | Clinical Status 1-Not hospitalized, no limitations on activities (Part 1, 10 mg, Day 28) | # Subjects Alive (1 mg QD inhaled, Day 28)
6 (85.7%) subjects (%): Hospital Discharge (Part 1, 3 mg, Day 21)
one: deaths observed (Part 1, 1 mg group)
7 (100%) subjects (%): Hospital Discharge (Part 1, 3 mg, Day 28)
6 (85.7%)* subjects (%): # Subjects Respiratory Failure-Free [2] | Proportion of Subjects Alive and Respiratory Failure-free [2]
6 (100%) subjects (%): Hospital Discharge (Part 1, 10 mg, Day 21) | Hospital Discharge (Part 1, 10 mg, Day 28)
7 (100.0%)* subjects (%): # Subjects Alive (3 mg QD inhaled, Day 28)
6 (100.0%) subjects (%): # Subjects Respiratory Failure-Free [3] | Proportion of Subjects Alive and Respiratory Failure-free [3] | # Subjects Alive (10 mg QD inhaled, Day 28)
100%: subjects discharged from the hospital (Part 1, 10 mg)
positive trend: trend vs placebo in oxygenation, clinical status, mortality, respiratory-failure free, time to discharge, Borg Dyspnea Score (Part 1, all compound 1 groups) | trend in reduction of inflammation markers (hsCRP, IFN-g, IL-6, IP-10) and RAGE (Part 1, mostly 3 mg and 10 mg doses)
0 subjects (%): Still in Hospital at Day 28 (Part 1, 1 mg) | Hospital Discharge (Part 1, 1 mg, Day 7) | Clinical Status 2-Not hospitalized, but with limitations on activities and/or requiring home oxygen (Part 1, 1 mg, Day 28) | Clinical Status 3-Hospitalized, not requiring supplemental oxygen, and no longer requiring ongoing medical care (Part 1, 1 mg, Day 28) | Clinical Status 4-Hospitalized, not requiring supplemental oxygen, but requiring ongoing medical care (Part 1, 1 mg, Day 28) | Clinical Status 5-Hospitalized, requiring supplemental oxygen (Part 1, 1 mg, Day 28) | Clinical Status 6-Hospitalized, on non-invasive ventilation or high-flow oxygen devices (Part 1, 1 mg, Day 28) | Clinical Status 7-Hospitalized, on invasive mechanical ventilation or extracorporeal membrane oxygenation (Part 1, 1 mg, Day 28) | Still in Hospital at Day 28 (Part 1, 3 mg) | Died (All-Cause Mortality) (Part 1, 3 mg QD inhaled) | Clinical Status 2-Not hospitalized, but with limitations on activities and/or requiring home oxygen (Part 1, 3 mg, Day 28) | Clinical Status 3-Hospitalized, not requiring supplemental oxygen, and no longer requiring ongoing medical care (Part 1, 3 mg, Day 28) | Clinical Status 5-Hospitalized, requiring supplemental oxygen (Part 1, 3 mg, Day 28) | Clinical Status 6-Hospitalized, on non-invasive ventilation or high-flow oxygen devices (Part 1, 3 mg, Day 28) | Clinical Status 7-Hospitalized, on invasive mechanical ventilation or extracorporeal membrane oxygenation (Part 1, 3 mg, Day 28) | Clinical Status 8-Death (Part 1, 3 mg, Day 28) | Still in Hospital at Day 28 (Part 1, 10 mg) | Died (All-Cause Mortality) (Part 1, 10 mg QD inhaled) | Hospital Discharge (Part 1, 10 mg, Day 7) | Clinical Status 3-Hospitalized, not requiring supplemental oxygen, and no longer requiring ongoing medical care (Part 1, 10 mg, Day 28) | Clinical Status 4-Hospitalized, not requiring supplemental oxygen, but requiring ongoing medical care (Part 1, 10 mg, Day 28) | Clinical Status 5-Hospitalized, requiring supplemental oxygen (Part 1, 10 mg, Day 28) | Clinical Status 6-Hospitalized, on non-invasive ventilation or high-flow oxygen devices (Part 1, 10 mg, Day 28) | Clinical Status 7-Hospitalized, on invasive mechanical ventilation or extracorporeal membrane oxygenation (Part 1, 10 mg, Day 28) | Clinical Status 8-Death (Part 1, 10 mg, Day 28)
86%: subjects discharged from the hospital (Part 1, 3 mg)
1 (14.3%) subjects (%): Hospital Discharge (Part 1, 3 mg, Day 7)
2 (33.3%) subjects (%): Hospital Discharge (Part 1, 1 mg, Day 14) | Hospital Discharge (Part 1, 10 mg, Day 14)
2 (28.6%) subjects (%): Hospital Discharge (Part 1, 3 mg, Day 14)
3 (50.0%) subjects (%): Hospital Discharge (Part 1, 1 mg, Day 21)
1 (16.7%) subjects (%): Died (All-Cause Mortality) (Part 1, 1 mg QD inhaled) | Clinical Status 8-Death (Part 1, 1 mg, Day 28) | Clinical Status 4-Hospitalized, not requiring supplemental oxygen, but requiring ongoing medical care (Part 1, 3 mg, Day 28) | Clinical Status 2-Not hospitalized, but with limitations on activities and/or requiring home oxygen (Part 1, 10 mg, Day 28)
